Data taken from a melting point compilation (Tetko et al.; mined from patent text by program, amines drawn as free bases though some values may be those of a salt).

First: CCOP(=O)(/C=C/c1cn(-c2ccccc2)nc1OCc1ccc(OCc2nc(/C=C/C(=O)O)oc2C)c(OC)c1)OCC
Second: COc1ccc(C(=O)NCCOc2ccc(CC(Oc3ccccc3)C(=O)O)cc2)cn1 (stereo unspecified)
The melting point of the first is lower: 89 to 90 °C for the first, 145 to 146 °C for the second.

First: O=C(NC[C@H]1CN(c2ccc3c(c2)CCCc2cn[nH]c2-3)C(=O)O1)c1ccccc1
Second: CC(=O)NCC1CN(c2ccc(N3CCN(c4ccc([N+](=O)[O-])s4)CC3)c(F)c2)C(=O)O1 (stereo unspecified)
The melting point of the first is lower: 105 to 125 °C for the first, 171 to 174 °C for the second.

Compared with `COc1cc(OC)c([C@@H]2CCCC[C@H]2O)c(OC)c1` (racemic), `COCCOc1cc2ncnc(NC3=CC(=O)C(N(C)C4CCCCC4)=CC3=O)c2cc1OC` is higher in melting point: 125 to 127 °C for the first, 178 to 180 °C for the second.

First: COC(=O)CCCc1cc2cc(Cl)ccc2n1S(=O)(=O)c1c(C)noc1C
Second: CCOc1cc2c(=O)cc(C(=O)O)n(CC)c2ccc1=O
The melting point of the first is lower: 96 to 98 °C for the first, 227 to 228 °C for the second.

First: O=C(Nc1c([N+](=O)[O-])cc(C(F)(F)F)cc1[N+](=O)[O-])C(F)(F)F
Second: O=[N+]([O-])c1ccc(S(=O)(=O)NCc2ccccc2C(F)(F)F)c([N+](=O)[O-])c1
The melting point of the first is higher: 222 to 224 °C for the first, 157 to 158 °C for the second.

First: COc1cc2c(c3c1OC(C)(C)C3)C(c1ccc(=O)[nH]c1)=NC(C)(C)C2
Second: COc1cccc2c(=O)c3ccc(SC)cc3oc12
The melting point of the first is lower: 195 to 196 °C for the first, 201 to 203 °C for the second.

First: COC(CNC(=O)C=CC(=O)O)OC
Second: CCOc1cc(C=CC(C)=O)ccc1OC
The melting point of the first is lower: 91 to 92 °C for the first, 95 to 96 °C for the second.

First: CC(=O)Nc1ccc(S(=O)(=O)c2cccc(Cl)c2)cc1
Second: Cc1ccc(-c2cc(F)c(F)cc2-c2ccc(S(C)(=O)=O)cc2)cc1C
The melting point of the first is higher: 149 to 150 °C for the first, 125 to 126 °C for the second.

First: Cc1nc2ccc(-c3ccc(OCC4(NC(=O)C5CC5)COC4)cc3)nn2c1-c1cnc(N)c(C(F)(F)F)c1
Second: C[C@H](CNC(=O)COc1cc(C(F)(F)F)c2c(-c3ccccc3)nn(C)c2n1)c1ccccc1
The melting point of the first is higher: 191 to 193 °C for the first, 91 to 93 °C for the second.

First: Cc1cccc(C)c1N1CC(C)N(c2c(C)cccc2C)C1=NC(=O)OCc1ccccc1 (stereo unspecified)
Second: CC(C)(C)OC(=O)C(Cc1ccc(Cl)cc1)N=C(c1ccccc1)c1ccccc1 (stereo unspecified)
The melting point of the first is lower: 74 to 75 °C for the first, 102 to 103 °C for the second.

First: CCCCCCCCN=C=O
Second: CCCCCCOc1ccc2[nH]c(SC(C)(CO)c3ccccc3)cc2c1 (stereo unspecified)
The melting point of the first is lower: 60 to 62 °C for the first, 93.5 to 95.5 °C for the second.

First: CCOC(=O)C(CC)(Cc1ccc(OCCN2CCCCC2)cc1)S(=O)(=O)c1ccc(OC)cc1 (stereo unspecified)
Second: COc1cc2c(cc1OC)CN(CCCOc1ccc(NC(=O)c3ccc4ccccc4c3)cc1)CC2
The melting point of the first is lower: 75 °C for the first, 189 to 190 °C for the second.

Compared with `CCOCCCNC(=O)C(C)(C(C)C)C(C)C`, `COC(=O)CCCCN(CCc1c[nH]c2ccccc12)CC(C)C` is higher in melting point: 30 °C for the first, 103 to 104 °C for the second.

Compared with `COc1ccccc1N1CCN(CCNC(=O)CCN2CCC(c3c[nH]c4cc(Cl)ccc34)CC2)CC1`, `CCNC(=O)c1ccc(N2CCN(Cc3cc(C)c4c(c3)NC(=O)C(C)O4)CC2)c(C)c1` (stereo unspecified) is higher in melting point: 69 to 71 °C for the first, 223 to 230 °C for the second.

Compared with `Cc1ccc(C(=O)Cn2c3c(sc2=O)CCCC3)cc1`, `Cc1cc(N2CCN(CC(=O)c3ccc(NS(C)(=O)=O)cc3)CC2)ccn1` is lower in melting point: 108 to 110 °C for the first, 93 to 94 °C for the second.

First: CNC(=O)CCC(=NNC(N)=S)c1ccccc1
Second: CC(=NNCCc1ccccc1)C(=O)O
The melting point of the first is higher: 205 to 207 °C for the first, 74 to 76 °C for the second.

First: CCn1c(=O)c2[nH]c(/C=C/c3cc4c(cc3Br)OCO4)nc2n(CC)c1=O
Second: O=C1CC2(C(=O)N1)C(=O)N1CCOc3cc(Cl)cc2c31 (stereo unspecified)
The melting point of the first is higher: > 270 °C for the first, 260 to 262 °C for the second.

`Cc1ccccc1-c1cnc(Nc2ccccn2)s1` and `Cc1ccnc2c1C(O)c1ccccc1-2` (stereo unspecified) cannot be ordered by melting point: 155 to 160 °C for the first, 154 to 156 °C for the second.

Compared with `O=C(O)c1cc(=O)c2c(I)cc(Cl)cc2[nH]1`, `O=C(O)c1ncn2c1c(=O)[nH]c1ccccc12` is higher in melting point: 298 °C for the first, > 300 °C for the second.

First: O=C(CCCCCNC(=O)c1ccccc1S)Nc1cccnc1
Second: CCCCOC(=O)C(NC(=O)OCc1ccccc1)c1cccs1 (stereo unspecified)
The melting point of the first is higher: 110 to 112 °C for the first, 37 °C for the second.

First: CC(=O)NCCCn1c(-c2ccc(Br)cc2)csc1=Nc1ccccc1
Second: ClCc1conc1-c1ccc(-c2ccccc2)cc1
The melting point of the first is higher: 155 to 157 °C for the first, 102 to 103 °C for the second.

First: O=C1SCC(O)=C1Cc1ccc(Br)cc1
Second: Cc1ccccc1C(=O)c1ccc(C(=O)O)o1
The melting point of the first is higher: 201 to 202 °C for the first, 155 to 157 °C for the second.

First: COC(=O)NN(C(=O)Cl)c1cccc2c1OCC2
Second: CNC(=O)Nc1coc2ccccc2c1=O
The melting point of the first is lower: 110 to 112 °C for the first, 254 °C for the second.

First: COc1ccc2c(c1)Sc1c(cc(OC)c(OC(C)=O)c1Br)N2C(=O)OC(C)OC(C)=O (stereo unspecified)
Second: CCCc1c(OC(C)=O)ccc2oc(Cc3ccc(OC)cc3)c(C)c12
The melting point of the first is higher: 134 to 135 °C for the first, 39 to 41 °C for the second.

First: CCCNC(=O)N(Cc1ccc(Cl)cc1)C1CCCC1
Second: COc1ccc(COc2coc(COC3CCCCO3)cc2=O)cc1 (stereo unspecified)
The melting point of the first is higher: 103 to 105 °C for the first, 95 to 96 °C for the second.

Compared with `Cc1nc2cc(NC(=O)c3cc4cc(C(F)(F)F)cnc4n3Cc3ccncc3)ccc2s1`, `COc1ccc(-n2nc(-c3ccc(F)cc3)c(-c3ccncc3)c2-c2c[nH]cn2)cc1` is lower in melting point: 208 to 210 °C for the first, 124 to 126 °C for the second.

First: Ic1cnc2c(c1)NCCN2
Second: C=C(C)OC(=O)N1c2cnccc2NC(=O)C1C (racemic)
The melting point of the first is lower: 126 to 128 °C for the first, 236 °C for the second.

Compared with `Cc1c(-c2ccccc2)c(N2CCC(N(C)C)C2)c2oc(C(C)(C)CO)nc2c1C#N` (stereo unspecified), `CCOC(=O)N1CCCc2nc3ccccc3c(O)c2C1` is higher in melting point: 175 to 178 °C for the first, 285 °C for the second.

First: CN1CCC(OC2c3ccccc3CCn3c2nc(I)c3I)CC1 (stereo unspecified)
Second: O=C(O)c1cn2c(n1)COc1ccccc1-2
The melting point of the first is lower: 163 °C for the first, 256 to 258 °C for the second.

First: CC(NC(=O)Cc1cc(F)cc(F)c1)C(=O)NC1C(=O)NC(c2ccccc2)c2ccccc21 (stereo unspecified)
Second: COC(=O)C(C)(C)C(Cc1ccccc1)NCc1ccccc1 (stereo unspecified)
The melting point of the first is higher: 244 °C for the first, 92 to 94 °C for the second.

First: CC(C)c1cc(C=C2Sc3ccccc3N(Cc3nnn[nH]3)C2=O)cc(C(C)C)c1O
Second: c1ccc2c(c1)cc(-c1nnn[nH]1)c1nnnn12
The melting point of the first is lower: 189 to 190 °C for the first, 280 to 282 °C for the second.

First: COc1cc(-c2nc3ccccc3n2Cc2ccccc2C)cc(OC)c1OC
Second: COc1cccc(CN(C)C)c1SCc1ccccc1
The melting point of the first is higher: 140 °C for the first, 69 to 70 °C for the second.

First: CCOC(=O)C(C)(C)C(=O)C(Oc1ccc(Cl)cc1)n1cncn1 (stereo unspecified)
Second: Clc1ccc(-c2ccc(Cl)nn2)cc1
The melting point of the first is lower: 88 to 89 °C for the first, 202 to 204 °C for the second.

Compared with `CC(C)(C)OCc1cc(C(C)(C)C)cc(COC(C)(C)C)c1SSc1c(COC(C)(C)C)cc(C(C)(C)C)cc1COC(C)(C)C`, `COc1cc(C(=O)N2CCN(C(=O)OC(C)(C)C)C(CO)C2)cc(OC)c1OC` (stereo unspecified) is lower in melting point: 120 to 121 °C for the first, 119 to 120 °C for the second.

First: COc1ccccc1OC(=O)CCl
Second: Cn1c(C(=O)O)c(Oc2ccccc2N)c2ccccc21
The melting point of the first is lower: 60 to 61.5 °C for the first, 193 to 194 °C for the second.

Compared with `CS(=O)(=O)c1ccc(-c2cnn(CC(=O)c3ccc(F)cc3F)c(=O)c2-c2ccc(F)cc2)cc1`, `O=C(O)Cc1ccc(OCCNC(=O)[C@@H]2Cc3ccccc3N2S(=O)(=O)c2ccc(Oc3ccc(F)cc3)cc2)cc1` is lower in melting point: 191 to 192 °C for the first, 65 °C for the second.

First: CCc1nc2c(cnn2CC)c(NC2CCOCC2)c1CNC(=O)c1cccc(C(=O)NCc2ccc(Cl)c(Br)c2)c1
Second: CCc1cn(C2CC(O)C(CNC(=O)Cc3ccccc3NC(C)=O)O2)c(=O)[nH]c1=O (stereo unspecified)
The melting point of the first is lower: 115 to 117 °C for the first, 266 to 267 °C for the second.

`CC(=O)OC1CCC2(C)C(=CC(=O)C3C4CCC(=O)C4(C)CCC32)C1=O` (stereo unspecified) and `CC(=O)C12OC1CC1C3CC=C4CC(O)CCC4(C)C3CCC12C` (stereo unspecified) cannot be ordered by melting point: 193 to 195 °C for the first, 194 to 196 °C for the second.

First: CC(C)(C)NC(=O)[C@@H]1CSCN1C(=O)OCc1ccccc1
Second: COc1ccc(OCc2ccccc2)c2c1CN(Nc1ccncc1)CC2
The melting point of the first is lower: 96 to 98 °C for the first, 151 to 152 °C for the second.

First: CCC(Oc1c(Br)cccc1Br)C(=O)OC1CC(O)C=C2C=CC(C)C(CCC3CC(O)CC(=O)O3)C21 (mixture of isomers)
Second: CCOC(=O)c1ncn2c1[C@@H]1CCCN1C(=O)c1c(Br)cccc1-2
The melting point of the first is lower: 114 to 116 °C for the first, 191 to 192 °C for the second.

First: CS(=O)(=O)c1ccc(C(=O)CC(=O)C2CC2)c(Cl)c1-c1nccs1
Second: COc1ccccc1S(=O)(=O)N(C)c1cccc2cc(C3=NCC(CC(=O)Nc4nnc[nH]4)S3)[nH]c12 (stereo unspecified)
The melting point of the first is lower: 146 to 147 °C for the first, 208 to 209 °C for the second.

First: O=C1N(N2CCCCC2)c2ccccc2C1(Cc1ccccc1)c1ccccc1 (stereo unspecified)
Second: C1=Cc2ccccc2C(N2CCNCC2)c2ccccc21
The melting point of the first is lower: 114 to 116 °C for the first, 139 to 141 °C for the second.

Compared with `CN(C)CC(O)c1c(-c2ccc3ccccc3c2)[nH]c2ccccc12` (stereo unspecified), `c1ccc2cc3sccc3cc2c1` is higher in melting point: 172 to 174 °C for the first, 193 to 194 °C for the second.

First: C=CC(=O)N1CCSC1c1cc(C(C)(C)C)c(O)c(C(C)(C)C)c1 (stereo unspecified)
Second: CC(=O)NC1c2cc3nonc3cc2OC(C)(C)C1OC(C)=O (stereo unspecified)
The melting point of the first is lower: 147 to 149 °C for the first, 236 to 238 °C for the second.

First: O=C1OCCN1N=C1CCOc2ccc([N+](=O)[O-])cc21
Second: Cc1cc(N)ccc1N=Nc1ccc([N+](=O)[O-])cc1
The melting point of the first is higher: 168 to 170 °C for the first, 152 °C for the second.

First: Clc1nc(C(Cl)(Cl)Cl)nc2ccc(I)cc12
Second: COc1ccc(Nc2nc(Cl)nc(Cl)n2)cc1Cl
The melting point of the first is lower: 154 to 155 °C for the first, 165 °C for the second.

Compared with `CCCCOC(=O)CS(=O)C(C)c1ccc(-c2ccccc2F)cc1` (stereo unspecified), `CC1(C)C=Cc2cc(C(=O)NCCN3C(=O)c4ccccc4C3=O)ccc2O1` is higher in melting point: 72 to 74 °C for the first, 183 to 185 °C for the second.

First: CCOC(=O)c1c(C(F)(F)F)nc(C(F)(F)Cl)c(C(=O)OC)c1N
Second: CCOC(=O)Nc1cc(COC(=O)Oc2ccc(N(CCCl)CCCl)cc2)cc(Nc2c3ccccc3nc3ccccc23)c1
The melting point of the first is lower: 69 to 70 °C for the first, 131 to 133 °C for the second.

First: CC1(C)CCSc2cccc(CO)c21
Second: O=c1[nH]c(N2CCNC(CO)C2)cc2c(Br)cccc12 (stereo unspecified)
The melting point of the first is lower: 53 °C for the first, > 230 °C for the second.

First: Nc1ccc(-c2ccncc2)nc1N
Second: CSc1[nH]ccc1[N+](=O)[O-]
The melting point of the first is higher: 252 to 254 °C for the first, 212 to 213 °C for the second.

`CC(=O)c1c(C)[nH]c(C)c1C` gave a melting point of 204 to 207 °C.
